Measured values: US9827315B2, “Compositions of pharmaceutical actives containing diethylene glycol monoethyl ether or other alkyl derivatives” (THEMIS MEDICARE LIMITED, priority 2013, dated 2017)
Values after ≈ are worked out from the molar mass of the structure shown. Where a name gives a salt, the structure may show the parent alone.

Tests used:
[1] = Solubility of pharmaceutical actives in Diethylene glycol monoethyl ether; conditions: for solubility: Diethylene glycol monoethyl ether, organic solvent or mixture, Solubility in Diethylene Glycol Monoethyl Ether
[2] = cited from earlier work

| Compound | Solubility in water (descriptive) [2] | other results |
| --- | --- | --- |
| COc1ccnc(C[S+]([O-])c2nc3ccc(OC(F)F)cc3[nH]2)c1OC (centres unmarked) [Pantoprazole] | – | Solubility in Diethylene Glycol Monoethyl Ether [1]: 80 mg/mL (≈ 209 mM) |
| CCOC1O[C@@H]2O[C@@]3(C)CC[C@H]4[C@H](C)CC[C@@H]([C@H]1C)[C@@]24OO3 (mixture of isomers) [Arteether, 10-Ethoxydecahydro-3,6,9-trimethyl-3,12-epoxy-12H-pyrano[4,3-j]-1,2-benzodioxepin] | quite water insoluble | Solubility in Diethylene Glycol Monoethyl Ether [1]: 80 mg/mL (≈ 256 mM) |
| Cc1ccc(-c2cc(C(F)(F)F)nn2-c2ccc(S(N)(=O)=O)cc2)cc1 [Celecoxib] | very poorly soluble | solubility in DMSO [2]: 200 mg/mL (≈ 524 mM); solubility in ethanol [2]: 100 mg/mL (≈ 262 mM); solubility [1]: 71.4 mg/mL (≈ 187 mM) |
| CCN1CCCC1CNC(=O)c1cc(S(=O)(=O)CC)c(N)cc1OC (centres unmarked) [Amilsulpride] | Practically insoluble in water, sparingly soluble in ethanol, soluble in methanol and freely soluble in dichloromethane | solubility [1]: 25 mg/mL (≈ 67.7 mM) |
| CN(C/C=C/C#CC(C)(C)C)Cc1cccc2ccccc12 [Terbinafine, [(2E)-6,6-dimethylhept-2-en-4-yn-1-yl](methyl)(naphthalen-1-ylmethyl)amine] | slightly soluble | solubility [1]: 16.7 mg/mL (≈ 57.2 mM) |
| NC(=O)Cc1cccc(C(=O)c2ccccc2)c1N [Nepafenac] | – | solubility [1]: ≤ 2 mg/mL |
| CCCC(=O)O[C@]1(C(=O)COC(C)=O)CC[C@H]2[C@@H]3C[C@H](F)C4=CC(=O)C=C[C@]4(C)[C@@]3(F)[C@@H](O)C[C@@]21C [Difluprednate] | Very low solubility in water | – |
| CC1=C(C/C=C(\C)CCC[C@H](C)CCC[C@H](C)CCCC(C)C)C(=O)c2ccccc2C1=O [Phytomenadione, 2-methyl-3-phytyl-1,4-naphthoquinone] | insoluble | – |
| Tacrolimus | Insoluble in water, freely soluble in ethanol, and very soluble in methanol and chloroform. | – |
| CC(=O)O[C@]1(C(C)=O)CC[C@H]2C3C[C@H](C)C4=CC(=O)C=CC4(C)[C@@]3(F)[C@@H](O)CC21C (some centres unmarked) [Flurometholone Acetate] | Freely soluble in chloroform and acetone, soluble in ethanol, very slightly soluble in water | – |
| COC(=O)C1=C(C)NC(C)=C(C(=O)O[C@@H]2CCCN(Cc3ccccc3)C2)C1c1cccc([N+](=O)[O-])c1 (stereo partly drawn) [Benidipine Hydrochloride, O5-methyl O3-[(3R)-1-(phenylmethyl)piperidin-3-yl]2,6-dimethyl-4-(3-nitrophenyl)-1,4-dihydropyridine-3,5-dicarboxylate] | practically insoluble | – |
| Rimexolone | Very slightly soluble in water; freely soluble in chloroform; soluble in ethyl acetate and in methanol | – |
| CCCC(=O)OCOC(=O)C1=C(C)NC(C)=C(C(=O)OC)[C@H]1c1cccc(Cl)c1Cl [Clevidipine, O3-(butanoyloxymethyl) O5-methyl (4R)-4-(2,3-dichlorophenyl)-2,6-dimethyl-1,4-dihydropyridine-3,5dicarboxylate] | practically insoluble | – |
| CCC(=O)O[C@]1(C(=O)SCF)[C@H](C)C[C@H]2[C@@H]3C[C@H](F)C4=CC(=O)C=C[C@]4(C)[C@@]3(F)[C@@H](O)C[C@@]21C [Fluticasone Propionate] | It is practically insoluble in water, freely soluble in dimethyl sulfoxide and dimethylformamide, and slightly soluble in methanol and 95% ethanol. Solubility in Diethylene glycol monoethyl ether is 14.7 mg/ml. | – |
